The nature of data set [1]: Molar enthalpy of transition or fusion. The conditions noted are these: DSC.
For data set [2] the following is noted: for Normal melting temperature: DTA.

Numbers after ± are expanded uncertainties.

`CCCCCCCC/C=C\CCCCCCCC(=O)O` [(Z)-9-octadecenoic acid]: the entries for the “Molar enthalpy of transition or fusion” value in data set [1] (Crystal 1) and in data set [1] (Crystal 2) were 8.99 ± 0.454 kcal/mol and 1.87 ± 0.1 kcal/mol, respectively. For the same compound, the Normal melting temperature in data set [2] (Crystal 1) came to 13.70 ± 0.4 °C. Moreover, the Triple point temperature in data set [2] (Crystal 2, DSC) worked out at 268.95 ± 0.8 K.

In the case of `CCCCC/C=C\C/C=C\CCCCCCCC(=O)O` [(Z,Z)-9,12-octadecadienoic acid], the “Molar enthalpy of transition or fusion” value in data set [1] (Crystal) was 7.46 ± 0.382 kcal/mol. In addition, in data set [2] (Crystal), the Normal melting temperature is -5.40 ± 0.4 °C.

Turning to `CC/C=C\C/C=C\C/C=C\CCCCCCCC(=O)O` [all-cis-9,12,15-octadecatrienoic acid], in data set [1] (Crystal), the “Molar enthalpy of transition or fusion” value was found to be 6.99 ± 0.359 kcal/mol. The Normal melting temperature in data set [2] (Crystal) was -10.90 ± 0.4 °C.

`CCCCCCCCCCCCCCCC(=O)O` [hexadecanoic acid]: in data set [1] (Crystal), the “Molar enthalpy of transition or fusion” value was found to be 12.9 ± 0.645 kcal/mol. Besides, in data set [2] (Crystal), the Normal melting temperature was found to be 63.10 ± 0.4 °C.

Turning to `CCCCCCCCCCCCCCCCCC(=O)O` [octadecanoic acid], the “Molar enthalpy of transition or fusion” value in data set [1] (Crystal) was 15.1 ± 0.741 kcal/mol. For the same compound, the Normal melting temperature in data set [2] (Crystal) is 70.60 ± 0.4 °C.

The record behind these values is the NIST ThermoML archive (doi:10.1016/j.tca.2016.02.008).
